Values quoted from earlier work, collected in publication PMC6315591 (Marine Drugs, 2018).

Tested on: muscle nAChR on BC3H-1 cells

For α-conotoxin MI, the “greater affinity at the α/δ versus α/γ interface” value is given as 10,000 fold.
